The source of these data is patent US20150165380A1, “DRAW SOLUTES COMPRISING ALKYL AMMONIUM SALT COMPOUNDS” (Samsung Electronics Co., Ltd., priority 2013, published 2015).

Data set [1] in a line: Osmotic flow analysis: water flux and reverse solute flux in U-shaped semi-dynamic forward osmosis apparatus. To be noted: feed distilled water.
Description: The osmotic flow is evaluated with a homemade, U-shaped semi-dynamic forward osmosis apparatus. To test performance of the draw solute, a semi-permeable commercialized FO membrane (cellulose trifluoroacetate) (Hydration Technology Innovation (HTI), USA) is placed in the middle of the apparatus. Each side is filled with distilled water as a feed solution and a draw solution with predetermined or given concentrations, respectively. The selective layer is faced toward the feed solutions and osmotic water flux from feed to draw solutions is calculated from the volumetric change of each solution during one hour after 30 min. The reversed solute flux from draw to feed solution through the membrane is measured by conductivity, inductively coupled plasma optical emission spectroscopy (ICP-OES), and total organic carbon (TOC).
The nature of data set [2]: Evaluation of osmotic pressure of draw solutions (Osmomat 010, freezing point lowering method). Format: physicochemical.
Description: Osmotic pressure of each draw solution is measured by using osmotic pressure measurement equipment (Osmomat 010) in accordance with the freezing point lowering method.
[3] abbreviates: draw solution osmotic pressure 15.0.
[4] abbreviates: draw solution osmotic pressure 29.0.
The mark [5] stands for this setting: draw solution osmotic pressure 43.0.
Setting [6] is: draw solution osmotic pressure 8.3.
[7] abbreviates: draw solution osmotic pressure 23.5.
The mark [8] stands for this setting: draw solution osmotic pressure 57.6.

For the compound `[Cl-].[Cl-].[Mg+2]` [Comp. Example 1, MgCl2], the values for the Reverse solute flux in data set [1] (setting [3]), in data set [1] (setting [4]) and in data set [1] (setting [5]) were 3.3 GMH, 4.8 GMH and 5.6 GMH, respectively. Moreover, the Water flux is given as 5.6 LMH in data set [1] (setting [3]), 8.2 LMH in data set [1] (setting [4]) and 9.7 LMH in data set [1] (setting [5]). In addition, the Osmotic pressure is listed as 11.9 atm in data set [2] (draw solution concentration 19.0 mg/ml), 25.2 atm in data set [2] (draw solution concentration 38.1 mg/ml) and 60.6 atm in data set [2] (draw solution concentration 76.2 mg/ml).
`O=S(=O)([O-])[O-].[Mg+2]` [Comp. Example 2, MgSO4]: the figures for the Reverse solute flux in data set [1] (setting [3]) and in data set [1] (setting [4]) were 0.9 GMH and 1.2 GMH, respectively. Further, the values for the Water flux in data set [1] (setting [3]) and in data set [1] (setting [4]) were 4.2 LMH and 5.5 LMH, respectively. The Osmotic pressure in data set [2] (draw solution concentration 60.2 mg/ml) is 11.7 atm; in data set [2] (draw solution concentration 120.4 mg/ml), 25.8 atm; in data set [2] (draw solution concentration 240.7 mg/ml), 62.4 atm.
With `NCCN.O=C(O)CC(O)(CC(=O)O)C(=O)[O-].O=C([O-])CC(O)(CC(=O)[O-])C(=O)[O-].[Na+].[Na+].[Na+].[Na+]` [Example 1], the Reverse solute flux in data set [1] (setting [6]) came out at 0 GMH; in data set [1] (setting [7]), 0.02 GMH; in data set [1] (setting [8]) it was 0.41 GMH. Besides, the Water flux was 4.06 LMH in data set [1] (setting [6]), 8.25 LMH in data set [1] (setting [7]) and 11.58 LMH in data set [1] (setting [8]). In addition, the Osmotic pressure came out at 5.8 atm in data set [2] (draw solution concentration 29.6 mg/ml); 21.8 atm in data set [2] (draw solution concentration 118.4 mg/ml); 33.8 atm in data set [2] (draw solution concentration 177.6 mg/ml); 50.4 atm in data set [2] (draw solution concentration 236.8 mg/ml); 61.1 atm in data set [2] (draw solution concentration 266.4 mg/ml).
For the compound `NCCNCCNCCNCCN.O=C(O)CC(O)(CC(=O)O)C(=O)[O-].O=C(O)CC(O)(CC(=O)O)C(=O)[O-].O=C([O-])CC(O)(CC(=O)O)C(=O)[O-].O=C([O-])CC(O)(CC(=O)[O-])C(=O)[O-].O=C([O-])CC(O)(CC(=O)[O-])C(=O)[O-].[Na+].[Na+].[Na+].[Na+].[Na+].[Na+].[Na+].[Na+].[Na+].[Na+]` [Example 2], the Osmotic pressure was determined as 6.3 atm in data set [2] (draw solution concentration 34.2 mg/ml); 11.8 atm in data set [2] (draw solution concentration 68.5 mg/ml); 17.5 atm in data set [2] (draw solution concentration 102.7 mg/ml); 37.5 atm in data set [2] (draw solution concentration 205.43 mg/ml); 67.1 atm in data set [2] (draw solution concentration 301.2 mg/ml).
For the compound `NCCCCCCNCCCCCCN.O=C(O)CC(O)(CC(=O)O)C(=O)[O-].O=C([O-])CC(O)(CC(=O)O)C(=O)[O-].O=C([O-])CC(O)(CC(=O)[O-])C(=O)[O-].[Na+].[Na+].[Na+].[Na+].[Na+].[Na+]` [Example 4], the Osmotic pressure in data set [2] (draw solution concentration 46.2 mg/ml) turned out to be 8.6 atm; in data set [2] (draw solution concentration 92.3 mg/ml), 17.2 atm; in data set [2] (draw solution concentration 184.6 mg/ml), 38.2 atm; in data set [2] (draw solution concentration 249.2 mg/ml), 59.3 atm.
For `NCCNCCN.O=S(=O)(O)O.O=S(=O)([O-])O.O=S(=O)([O-])[O-].[Na+].[Na+].[Na+]` [Example 7], the Osmotic pressure worked out at 10.2 atm in data set [2] (draw solution concentration 46.3 mg/ml); 18.2 atm in data set [2] (draw solution concentration 92.6 mg/ml); 20.4 atm in data set [2] (draw solution concentration 185.2 mg/ml); 26.8 atm in data set [2] (draw solution concentration 277.8 mg/ml); 37.6 atm in data set [2] (draw solution concentration 370.4 mg/ml); 62.8 atm in data set [2] (draw solution concentration 463.0 mg/ml).
